Where a name gives a salt, the structure may show the parent alone. Calls of active or inactive are those of the source. The calls are words filed in the database; no cut-off is given here.

For data set [1], the system named is Plasmodium falciparum. The experiment in a line: Antimalarial activity against synchronised early trophozoite stage of Plasmodium falciparum 3D7 assessed as parasite growth inhibition measured after two invasion cycles by flow cytometric analysis. In kind it is functional, organism-based. For orientation: A flow cytometer gives signals particle by particle.
Data set [2] is described as follows: Solubility of the compound in phosphate buffer at pH 7.4. It is filed as physicochemical.
The nature of data set [3]: Self-aggregating activity of the compound in phosphate buffer at pH 7.4 at 80 uM by 1D 1H-NMR spectroscopic analysis in presence of Tween 20. It is filed as physicochemical. To be noted: pH 7.4, 80 µM.
In data set [4] the target is T1, Apical membrane antigen 1 (Plasmodium falciparum (isolate 3D7), UniProt Q7KQK5).
T1 sequence (Q7KQK5 whole entry): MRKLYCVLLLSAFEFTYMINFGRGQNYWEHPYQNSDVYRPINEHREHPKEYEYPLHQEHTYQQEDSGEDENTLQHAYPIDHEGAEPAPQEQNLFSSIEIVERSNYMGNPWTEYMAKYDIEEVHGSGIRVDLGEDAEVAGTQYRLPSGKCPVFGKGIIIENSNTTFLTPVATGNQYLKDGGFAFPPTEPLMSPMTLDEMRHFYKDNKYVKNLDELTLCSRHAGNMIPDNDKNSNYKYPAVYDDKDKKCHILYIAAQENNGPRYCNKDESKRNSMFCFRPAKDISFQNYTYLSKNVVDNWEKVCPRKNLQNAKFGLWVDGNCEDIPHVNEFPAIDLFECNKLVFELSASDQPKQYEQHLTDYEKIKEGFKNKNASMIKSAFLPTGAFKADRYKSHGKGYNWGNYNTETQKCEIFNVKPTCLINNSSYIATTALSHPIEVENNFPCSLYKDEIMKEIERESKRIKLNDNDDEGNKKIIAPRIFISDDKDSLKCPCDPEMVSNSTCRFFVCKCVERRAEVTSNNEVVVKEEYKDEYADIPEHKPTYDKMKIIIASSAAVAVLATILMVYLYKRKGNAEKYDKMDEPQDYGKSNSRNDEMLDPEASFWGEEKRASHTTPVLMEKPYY
As to the kind of experiment: Binding affinity to Plasmodium falciparum 3D7 AMA1 (104 to 442) by SPR analysis.

Data set [5] can be described thus: Self-aggregating activity of the compound in phosphate buffer at pH 7.4 at 5 to 80 uM by 1D 1H-NMR spectroscopic analysis in absence of Tween 20. In kind it is physicochemical. To be noted: pH 7.4, 80 µM.
Data set [6] concerns the target T1, Apical membrane antigen 1. As to the kind of experiment: Binding affinity to recombinant His-tagged Plasmodium falciparum 3D7 AMA1 assessed as inhibition of interaction with biotin-tagged RON2 peptide after 30 mins by AlphaScreen assay. On the technique in general: Bead proximity is the source of the signal in Alpha formats.
Data set [7] has as its system Plasmodium falciparum. As to the kind of experiment: Antimalarial activity against Plasmodium falciparum FVO schizont infected in RBC assessed as inhibition of merozoite invasion after 3 to 4 hrs by flow cytometric analysis. In kind it is functional, organism-based.
For data set [8], the target named is T2, Apical membrane antigen 1 (Plasmodium falciparum (isolate 3D7)) (UniProt Q7KQK5).
T2 sequence (whole entry): T1 sequence (Q7KQK5 whole entry)
The experiment in a line: Binding affinity to Plasmodium falciparum 3D7 AMA1 (104 to 442) up to 200 uM by SPR analysis. A general note: SPR reads the build-up and loss of mass on a sensor chip optically.

The target of data set [9] is T2, Apical membrane antigen 1 (Plasmodium falciparum (isolate 3D7)). The experiment in a line: Competitive binding affinity to Plasmodium falciparum 3D7 AMA1 (104 to 442) at 80 uM after 200 milisecs by CPMG binding assay in presence of RON2 peptide and absence of detergent.
For data set [10] the target is unchanged. The experiment in a line: Competitive binding affinity to Plasmodium falciparum 3D7 AMA1 (104 to 442) at 80 uM after 200 milisecs by CPMG binding assay in presence of R1 peptide and absence of detergent.
Data set [11] shares this target. The experiment in a line: Competitive binding affinity to Plasmodium falciparum 3D7 AMA1 (104 to 442) at 80 uM after 200 milisecs by CPMG binding assay in presence of R1 peptide and Tween 20.
For data set [12] the target is unchanged. As to the kind of experiment: Competitive binding affinity to Plasmodium falciparum 3D7 AMA1 (104 to 442) at 80 uM after 200 milisecs by CPMG binding assay in presence of RON2 peptide and Tween 20.

Usually Kd stands for the concentration at which binding is half-saturated. A lower Kd goes with a tighter complex. On to `Cn1cc(-c2ccc(N)cc2)c2c(N)ncnc21`, for which the “growth inhibition (GI)” value with Plasmodium falciparum [1] is “Active”. Further, in data set [2], the solubility result was “soluble”. The Activity result in data set [3] and in [5] was “Not Active” in each case. In data set [4], this molecule returned a Kd of no less than 1 mM.
In general, IC50 refers to the concentration at which inhibition is half-maximal. For `CN(C)CCCN1c2ccccc2C(C)(C)c2ccccc21` [DIMETACRINE], the IC50 in data set [6] is 0.028 mM.
`COc1cccc(-c2cn(C)c3ncnc(N)c23)c1`: the “growth inhibition (GI)” value in the data set with Plasmodium falciparum [1] was “Active”. Also, the solubility result in data set [2] is listed as “soluble”. Moreover, the Activity result in data set [3] and in [5] was “Not Active” throughout. Also, in [4], the dissociation constant (Kd) was no less than 1 mM.
For the molecule `Cn1cc(-c2cccc(N)c2)c2c(N)ncnc21`, the “growth inhibition (GI)” value in the data set on Plasmodium falciparum [1] was “Active”. Further, the solubility result in [2] is “soluble”. For the same molecule, the Activity entry in data set [3] and in data set [5] was “Not Active” each time. In data set [4], the Kd is no less than 1 mM.
Turning to `Nc1ncnc2c1c(-c1ccc(Oc3ccccc3)cc1)cn2C1CCCC1`, the IC50 was greater than 1 mM with Plasmodium falciparum [1] and 0.03 mM with Plasmodium falciparum [7]. In addition, in [2], the solubility result is given as “soluble”. The Activity result in [3] is “Not Active”; in data set [5] it was “Active”. Moreover, in data set [4], the Kd was no less than 1 mM.
Turning to `CCn1cc(-c2ccc(OC)cc2)c2c(N)ncnc21`, the “growth inhibition (GI)” value with Plasmodium falciparum [1] is “Active”. In addition, the solubility result in [2] is “soluble”. The Activity result in [3] and in [5] was “Not Active” throughout. The molecule further showed a dissociation constant (Kd) in data set [4] of no less than 1 mM.
For the molecule `CN(C)c1ncnc2c1c(-c1ccc(Oc3ccccc3)cc1)cn2C1CCCC1`, the IC50 in the data set on Plasmodium falciparum [1] was greater than 1 mM; with Plasmodium falciparum [7], 0.006 mM. For the same molecule, the solubility entry in data set [2] was “soluble”. Further, the Activity entry in data set [3] was “Not Active”; in data set [5], “Active”. The Kd in [4] is no less than 1 mM.
Turning to `Clc1cccc(C(c2ccc3[nH]cnc3c2)n2ccnc2)c1` (stereo unspecified) [LIAROZOLE HYDROCHLORIDE], the IC50 in data set [6] was 0.029 mM.
As for `Clc1ncnc2c1c(Br)cn2C1CCCC1`, in data set [8], the result was inactive.
Consider `Cn1cc(-c2ccccc2)c2c(N)ncnc21`, for which the “growth inhibition (GI)” value in the data set on Plasmodium falciparum [1] was “Active”. For the same molecule, the solubility entry in data set [2] is given as “soluble”. The Activity entry in data set [3] and in data set [5] was “Not Active” throughout. In data set [4], this molecule displayed a Kd of no less than 1 mM.
As for `Cn1cc(-c2cccc(F)c2)c2c(N)ncnc21`, the IC50 with Plasmodium falciparum [1] is less than 0.031 mM. Also, the solubility entry in data set [2] is reported as “soluble”. Also, the Activity entry in data set [3] and in data set [5] was “Not Active” each time. Further, the Kd in [4] is no less than 1 mM.
As to `Cn1cc(-c2ccncc2)c2c(N)ncnc21`, the “growth inhibition (GI)” value in the data set on Plasmodium falciparum [1] is “Active”. For the same molecule, in [2], the solubility result was “soluble”. Also, the Activity result in data set [3] and in data set [5] was “Not Active” in each case. This molecule also had a Kd in data set [4] of no less than 1 mM.
Consider `Cn1cc(-c2ccc(F)cc2)c2c(N)ncnc21`, for which, in the data set with Plasmodium falciparum [1], the “growth inhibition (GI)” value is “Active”. In addition, the solubility result in data set [2] is reported as “soluble”. Besides, the Activity entry in data set [3] and in data set [5] was “Not Active” throughout. Also, in data set [4], the Kd is no less than 1 mM.
Regarding `Cn1cc(-c2ccccc2F)c2c(N)ncnc21`, the “growth inhibition (GI)” value in the data set with Plasmodium falciparum [1] was “Active”. For the same molecule, the solubility result in [2] is listed as “soluble”. Moreover, the Activity result in [3] and in [5] was “Not Active” in each case. Moreover, in data set [4], the Kd was no less than 1 mM.
On to `COc1ccc(-c2cn(C)c3ncnc(N)c23)cc1`, for which the “growth inhibition (GI)” value in the data set with Plasmodium falciparum [1] is “Active”. Moreover, the solubility result in data set [2] is “soluble”. For the same molecule, the Activity result in [3] and in data set [5] was “Not Active” in each case. In data set [4], this molecule registered a Kd of no less than 1 mM.
In the case of `Clc1[nH]cnc2nccc1-2`, in [8], the result was inactive.
For `COc1ccccc1-c1cn(C)c2ncnc(N)c12`, the “growth inhibition (GI)” value in the data set with Plasmodium falciparum [1] was “Active”. The solubility entry in [2] was “soluble”. Moreover, the Activity result in [3] and in data set [5] was “Not Active” in each case. Moreover, in data set [4], the dissociation constant (Kd) is no less than 1 mM.
For the molecule `COc1ccc(-c2cn(C3CCCC3)c3ncnc(N)c23)cc1`, the result in [9], in data set [10], in data set [11] and in [12] was Active. The values for the IC50 in the data set with Plasmodium falciparum [1] and in the data set with Plasmodium falciparum [7] were 0.063 mM and 0.0098 mM, respectively. The solubility entry in data set [2] was “soluble”. For the same molecule, the Activity result in data set [3] and in [5] was “Not Active” in each case. This molecule yielded a Kd in data set [4] of no less than 1 mM.
